Assay results reported in patent publication US7078411B2, “Phospholipid transfer protein (PLTP) and cholestoral metabolism” (priority 2001, dated 2006).
“Also recorded” adds a separate entry of the source.

Key:
[1] = tested on: cultured tumor cell lines; conditions: Table 1
Text: To determine whether the induction of PLTP expression is topotecan specific, we evaluated the effects of camptothecin and some of its derivatives, and compared them against some protoberberines, which are a new class of organic cations that are dual poisons of topoisomerases I and II (3–5). Berberine is an isoquinoline plant alkaloid.

PLTP expression = assay: Northern blot analysis of PLTP expression in HepG2 cells; assay type: cell-based, human; conditions: for induction of PLTP expression: 500 nM, 24 hrs (FIG. 5)
Method: Dose response induction of PLTP was performed in HepG2 cells for 24 hrs. RNAs isolated were separated on agarose gel and then transferred to nitrocellulose filters for hybridization with a labeled full-length PLTP cDNA probe. […] Lane 1, control (untreated); 2, 1 nM; 3, 20 nM; 4, 100 nM; 5, 500 nM; and 6, 1,000 nM topotecan expression. […] This may be a result of the inhibition of transcription by topotecan at the higher dosage.
HepG2 cells were treated with the indicated drugs (500 nM) for 24 hrs. RNAs were then harvested and fractionated on agarose gel and then transferred to nitrocellulose filters for hybridization with a full length PLTP cDNA probe.
We first examined topotecan-induced PLTP expression in an independent dose response study by Northern blot analysis. […] This may be a result of the inhibition of transcription by topotecan at the higher dosage. […]

PLTP promoter [2] = assay type: cell-based, human; conditions: HepG2/PLTPpLuc; for specificity of induction of PLTP promoter activity: 24 hours (FIG. 14)
Text: FIG. 11 is a schematic drawing of the promoter of the phospholipid transfer protein (PLTP) gene. A 1.6 kb fragment of the PLTP gene promoter derived from a BAC clone was PCR amplified and then subcloned into a modified pXP1 luciferase reporter plasmid vector. The modified vector contained the neomycin resistance marker gene.
HepG2 cells were permanently transfected with the construct shown in FIG. 11, and selected for resistance to G418, an aminoglycoside antibiotic. Clone 1, a G418 resistant cell line isolated from the selection, designated HepG2/PLTPpLuc, was utilized for testing the effect of topotecan on induction of PLTP promoter activity. The transfectant cell line, HepG2/PLTPpLuc, was treated with topotecan (500 nM) for approximately 24 hours. Cell extracts were obtained at the end of incubation and the luciferase assay was performed with them. The luciferase activity of the topotecan treated cells (+) was plotted relative to the control (−).
FIG. 13 illustrates the time course analysis of induction of PLTP promoter activity by topotecan in HepG2/PLTPpLuc cells. The HepG2/PLTPpLuc cells were treated with 500 nM of topotecan. Cell extracts were obtained at various time points following treatment with topotecan (0, 4, 8, 12, 16, and 24 hours) and assayed for luciferase activity, which was plotted as a function of time.
The HepG2/PLTPpLuc cells were treated with either topotecan, taxol, or melphalan for 24 hours. Cell extracts were then obtained for the luciferase assay.
The luciferase reporter plasmid was constructed by cloning the PLTP promoter derived from a BAC clone into the pXP2 luciferase reporter vector. A neomycin selectable marker gene driven by the CMV early promoter was further subcloned into the PLTP-luciferase reporter plasmid (FIG. 11).
Approximately 10 μg of the PLTP-luciferase reporter plasmid was transfected using lipofectamine into HepG2 cells for about 4 hrs. Cells were washed and then further cultured and selected in the presence of 1.6 mg/ml of G418 for neomycin resistance. Media were changed every 3 days with fresh G418 added at the above concentration. Approximately 14 days later, colonies that emerged from the selection were picked using cloning cylinders and the clones were transferred to 24-well cluster dishes for further culturing and selection.
At confluence, cells were next transferred to 12-well dishes and aliquots were also transferred to 24-well dishes for screening with topotecan for induction of the PLTP promoter activity. Luciferase assay was performed using a standard luciferase assay kit from Promega.

[3] = tested on: phospholipid transfer protein (PLTP) gene; assay: DNA microarray expression profiling of topotecan-treated HepG2 cells; assay type: cell-based, human
Method: (§1) FIG. 1 is a DNA microarray presenting expression profiling of topotecan induced HepG2 cells. HepG2 cells were treated with 500 nM of topotecan in time course study for the indicated time points in the figure. RNAs were isolated, labeled and hybridized to the array. Scan image were analyzed using the Pathway and the Cluster softwares. The results of cluster analysis are shown in TreeView. Transition of color to red indicates the upregulation, and to green is the downregulation of gene expression.
FIG. 2 is a scanned image of the PLTP gene induced by topotecan. HepG2 cells were treated with topotecan in time-course and dose response studies. The microarrays were exposed to phosphorimage screen and the scanned images were analyzed with the Pathway software. Enlarged scanned images for the induction of PLTP gene with time and dose are shown.
as §1, with “3” for “1”, “various concentrations” for “500 nM”, “topotecan.” for “topotecan in time course study for the indicated time points in the figure.”, “images” for “image”, “TreeView. A representative set of genes with altered expression was plotted in the line graphs.” for “TreeView.”
We have used DNA microarray to monitor the expression profiles of cells in response to anticancer drug treatments, and also comparing these profiles to those obtained from cancer cells that have been selected for resistance to the corresponding agents. […]
The HepG2 cells were either transiently treated with 500 nM of topotecan for various times (1–24 hrs), or with various doses of topotecan (1–1000 nM) for 24 hrs. […] The scanned images were processed and analyzed on the Pathways™ software. Tab delimited files generated from Pathways™ were imported into Microsoft Excel® for sorting by fold changes and intensity levels (radioactivity, cpm).

PLTP promoter [4] = assay: PLTP promoter-luciferase reporter, transient transfection in HepG2 cells (dual luciferase assay); assay type: cell-based, human; conditions: 24 hrs
Method: FIGS. 6A and 6B depict the transactivation of the PLTP promoter by topotecan. FIG. 6A is a schematic drawing of the PLTP gene promoter-luciferase reporter construct. The promoter was PCR amplified from a BAC clone containing the genomic sequence for the human PLTP gene. FIG. 6B graphically presents the results calibrated in terms of luciferase activity, of a study where HepG2 cells were transfected with the PLTP promoter-luciferase reporter and were then treated with various doses of topotecan for 24 hrs. Cell extracts were harvested for the dual luciferase assay (Promega, Wis.). The relative luciferase activity has been normalized with the internal control renella luciferase activity cotransfected with the promoter reporter construct, to monitor transfection efficiency.
We also determined whether induction of PLTP gene expression by topotecan is transcriptionally activated. Approximately 1.5 kb of the PLTP promoter sequence was obtained by the polymerase chain reaction (PCR) amplification of a human BAC clone (RP3-337018) containing the genomic sequence of PLTP. The PCR product consisting of the promoter region was sequenced verified and then subcloned into a luciferase reporter vector pGL2-Basic vector (Promega, Wis.) (FIG. 6A). […]

| Compound | Cytotoxicity [1] | induction of PLTP expression (PLTP expression) | specificity of induction of PLTP promoter activity (PLTP promoter [2]) | also measured |
| --- | --- | --- | --- | --- |
| CCC1(O)C(=O)OCc2c1cc1n(c2=O)Cc2cc3c(N)c4c(cc3nc2-1)OCO4 [9-NH2-10,11-MD-CPT(R)] | Inactive | – | – | – |
| CCC1(O)C(=O)OCc2c1cc1n(c2=O)Cc2cc3c(N)c4c(cc3nc2-1)OCO4 [9-NH2-10,11-MD-CPT(S)] | Active | induced | – | – |
| CC[C@@]1(O)C(=O)OCc2c1cc1n(c2=O)Cc2cc3c(N)cccc3nc2-1 [9-NH2-CPT(S)] | Active | induced | – | – |
| CC[C@@]1(O)C(=O)OCc2c1cc1n(c2=O)Cc2cc3ccccc3nc2-1 [Camptothecin (CPT), Camptothecin] | Active | induced | – | – |
| CCc1c2c(nc3ccc(OC(=O)N4CCC(N5CCCCC5)CC4)cc13)-c1cc3c(c(=O)n1C2)COC(=O)[C@]3(O)CC [Irinotecan (CPT-11), Irinotecan] | – | failed to activate PLTP expression | – | – |
| N[C@@H](Cc1ccc(N(CCCl)CCCl)cc1)C(=O)O [melphalan] | – | – | no significant stimulation | – |
| CC(=O)O[C@H]1C(=O)[C@@]2(C)[C@H]([C@H](OC(=O)c3ccccc3)[C@]3(O)C[C@H](OC(=O)[C@H](O)[C@@H](NC(=O)c4ccccc4)c4ccccc4)C(C)=C1C3(C)C)[C@]1(OC(C)=O)CO[C@@H]1C[C@@H]2O [taxol] | – | – | no significant stimulation | – |
| CC[C@@]1(O)C(=O)OCc2c1cc1n(c2=O)Cc2cc3c(CN(C)C)c(O)ccc3nc2-1 [topotecan] | – | induced | specific for topotecan | induction of PLTP gene expression ([3]; 500 nM topotecan, after 24 hrs of exposure): approximately 20 fold; onset of PLTP expression after exposure ([3]; 500 nM topotecan, time course): 10 to 15 h; induction of PLTP expression, dose response ([3]; 1–1000 nM, 24 hrs): elevated in a dose dependent manner; PLTP expression at the highest dose (PLTP expression; 1 μM, 24 hrs): reversed; induction of PLTP expression, dose response (PLTP expression; 1–1000 nM, 24 hrs): dose dependent induction; also recorded: elevated with increasing doses; PLTP promoter activity at the highest dose (PLTP promoter [4]; 1 μM): inhibition of the promoter activity; transactivation of PLTP promoter, dose response (PLTP promoter [4]; various doses): transactivated by topotecan dose-dependently; induction of PLTP promoter activity (PLTP promoter [2]; 500 nM, approximately 24 hours (FIG. 12)): approximately 20 fold |
| CC[C@]1(O)C[C@@H]2CN(CCc3c([nH]c4ccccc34)[C@@](C(=O)OC)(c3cc4c(cc3OC)N(C)[C@H]3[C@@](O)(C(=O)OC)[C@H](OC(C)=O)[C@]5(CC)C=CCN6CC[C@]43[C@@H]65)C2)C1 [vinblastine] | – | failed to induced PLTP gene expression; also recorded: did not induce PLTP expression | – | – |
